Measured values reported in ChEMBL document CHEMBL2163222 (J Med Chem, 2012).
Calls of active or inactive are those of the source. The rule behind the calls is not given here.

Legend:
T98G = test: cells; details: Homo sapiens, 72 h
OE33 = test: Growth inhibition of human OE33 cells after 3 days by MTT assay; format: functional, cell-based; details: OE33, 72 h
Hs 683 [1] = test: cells; details: Homo sapiens, Hs 683, 72 h
cells = details: Homo sapiens, U373 MG, 72 h
[2] = target: Dual specificity tyrosine-phosphorylation-regulated kinase 1A (Homo sapiens, UniProt Q13627); test: Inhibition of DYRK1A kinase using RBER-CHKtide substrate by radiometric protein kinase assay
[3] = Cytostatic activity in human U373 cells at 24 uM assessed global growth ratio after 72 hrs by quantitative video microscopy; format: functional, U-373MG ATCC
[4] = Growth inhibition of human OE21 cells after 3 days by MTT assay; format: functional, cell-based; details: OE21, 72 h
[5] = Solubility of compound at pH 7.4; format: physicochemical; details: buffer
[6] = Cytostatic activity in human U373 cells at 18 uM assessed global growth ratio after 72 hrs by quantitative video microscopy; format: functional, U-373MG ATCC
[7] = target: Tyrosine-protein kinase CSK (Homo sapiens) (UniProt P41240); test: Inhibition of CSK assessed as residual enzyme activity at 10 uM by radiometric protein kinase assay
[8] = target: Serine/threonine-protein kinase 17A (Homo sapiens) (UniProt Q9UEE5); test: Inhibition of STK17A assessed as residual enzyme activity at 10 uM by radiometric protein kinase assay
Mus musculus = species: Mus musculus; test: Toxicity in mouse assessed as drug tolerance; format: organism-based; details: in vivo
[9] = Inhibition of eIF2 protein expression in human Hs683 cells at 5 uM after 4 hrs by Western blotting method; format: functional, cell-based; details: Hs 683
[10] = target: Calcium/calmodulin-dependent protein kinase type II subunit delta (Homo sapiens) (UniProt Q13557); test: Inhibition of CAMK2D assessed as residual enzyme activity at 10 uM by radiometric protein kinase assay
Hs 683 [11] = test: Inhibition of eIF2 activity in human Hs683 cells at 5 uM after 4 hrs by Western blotting method; format: functional, cell-based
[12] = Inhibition of eIF2 protein expression in human U373 cells at 1 uM after 4 hrs by Western blotting method; format: functional, cell-based; details: U-373MG ATCC
[13] = target: Calcium/calmodulin-dependent protein kinase type II subunit alpha (Homo sapiens) (UniProt Q9UQM7); test: Inhibition of CAMK2A assessed as residual enzyme activity at 10 uM by radiometric protein kinase assay
U-373MG ATCC = test: Inhibition of eIF2 activity in human U373 cells at 1 uM after 4 hrs by Western blotting method; format: functional, cell-based
[14] = target: Tyrosine-protein kinase Fer (Homo sapiens) (UniProt P16591); test: Inhibition of FER assessed as residual enzyme activity at 10 uM by radiometric protein kinase assay
[15] = target: TGF-beta receptor type-1 (Homo sapiens) (UniProt P36897); test: Inhibition of TGFB-R1 assessed as residual enzyme activity at 10 uM by radiometric protein kinase assay
[16] = target: Myosin light chain kinase 2, skeletal/cardiac muscle (Homo sapiens) (UniProt Q9H1R3); test: Inhibition of MYLK2 assessed as residual enzyme activity at 10 uM by radiometric protein kinase assay
[17] = target: TGF-beta receptor type-2 (Homo sapiens) (UniProt P37173); test: Inhibition of TGFB-R2 assessed as residual enzyme activity at 10 uM by radiometric protein kinase assay
[18] = Cytostatic activity in human U373 cells at 0.9 uM assessed global growth ratio after 72 hrs by quantitative video microscopy; format: functional, U-373MG ATCC
[19] = target: MAP kinase-interacting serine/threonine-protein kinase 1 (Homo sapiens) (UniProt Q9BUB5); test: Inhibition of MKNK1 assessed as residual enzyme activity at 10 uM by radiometric protein kinase assay
[20] = target: Tyrosine-protein kinase Tec (Homo sapiens) (UniProt P42680); test: Inhibition of TEC assessed as residual enzyme activity at 10 uM by radiometric protein kinase assay
[21] = target: Myosin light chain kinase, smooth muscle (Homo sapiens) (UniProt Q15746); test: Inhibition of MYLK assessed as residual enzyme activity at 10 uM by radiometric protein kinase assay
[22] = Cytostatic activity in human U373 cells at 64 uM assessed global growth ratio after 72 hrs by quantitative video microscopy; format: functional, U-373MG ATCC
[23] = Cytostatic activity in human U373 cells at 31 uM assessed global growth ratio after 72 hrs by quantitative video microscopy; format: functional, U-373MG ATCC

Chain of Myosin light chain kinase 2, skeletal/cardiac muscle (Homo sapiens) (Q9H1R3 whole entry): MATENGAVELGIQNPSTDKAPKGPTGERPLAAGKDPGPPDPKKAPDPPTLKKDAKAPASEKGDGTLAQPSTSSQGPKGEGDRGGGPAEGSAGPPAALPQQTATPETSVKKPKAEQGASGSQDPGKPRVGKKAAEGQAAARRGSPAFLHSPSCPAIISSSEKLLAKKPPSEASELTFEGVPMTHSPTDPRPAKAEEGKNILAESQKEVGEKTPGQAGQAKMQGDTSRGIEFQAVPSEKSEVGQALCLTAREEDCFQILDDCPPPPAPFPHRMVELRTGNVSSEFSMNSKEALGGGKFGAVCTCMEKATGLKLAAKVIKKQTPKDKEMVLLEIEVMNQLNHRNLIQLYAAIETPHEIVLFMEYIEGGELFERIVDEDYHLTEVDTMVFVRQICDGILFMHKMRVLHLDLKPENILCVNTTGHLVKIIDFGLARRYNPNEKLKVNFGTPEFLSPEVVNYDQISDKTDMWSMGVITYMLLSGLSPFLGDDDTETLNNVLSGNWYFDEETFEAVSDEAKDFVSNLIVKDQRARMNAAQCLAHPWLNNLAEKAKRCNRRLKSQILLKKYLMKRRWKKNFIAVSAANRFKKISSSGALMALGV
Chain of Tyrosine-protein kinase Fer (Homo sapiens) (P16591 whole entry, looked up): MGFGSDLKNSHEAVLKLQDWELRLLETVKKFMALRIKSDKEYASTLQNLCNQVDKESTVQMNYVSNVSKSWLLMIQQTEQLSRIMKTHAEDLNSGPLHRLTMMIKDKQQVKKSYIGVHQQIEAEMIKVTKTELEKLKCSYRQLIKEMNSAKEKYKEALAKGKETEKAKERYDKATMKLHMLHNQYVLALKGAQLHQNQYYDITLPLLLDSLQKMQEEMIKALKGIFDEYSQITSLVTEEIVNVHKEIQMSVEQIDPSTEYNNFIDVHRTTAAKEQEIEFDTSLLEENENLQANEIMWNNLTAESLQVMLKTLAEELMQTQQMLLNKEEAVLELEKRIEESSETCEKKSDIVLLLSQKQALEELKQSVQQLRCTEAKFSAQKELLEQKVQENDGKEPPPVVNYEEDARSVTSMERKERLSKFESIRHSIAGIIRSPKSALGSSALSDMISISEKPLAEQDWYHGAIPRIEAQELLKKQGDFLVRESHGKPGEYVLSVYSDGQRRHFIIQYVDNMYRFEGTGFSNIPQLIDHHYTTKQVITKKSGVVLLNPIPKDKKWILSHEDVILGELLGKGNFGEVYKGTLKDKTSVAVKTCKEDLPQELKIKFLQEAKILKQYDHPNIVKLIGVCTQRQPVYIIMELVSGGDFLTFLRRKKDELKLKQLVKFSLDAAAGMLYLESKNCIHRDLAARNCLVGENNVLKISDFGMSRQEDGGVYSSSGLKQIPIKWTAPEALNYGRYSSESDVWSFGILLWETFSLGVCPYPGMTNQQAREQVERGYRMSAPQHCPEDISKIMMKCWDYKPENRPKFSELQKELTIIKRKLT
Chain of Calcium/calmodulin-dependent protein kinase type II subunit delta (Homo sapiens) (Q13557 whole entry): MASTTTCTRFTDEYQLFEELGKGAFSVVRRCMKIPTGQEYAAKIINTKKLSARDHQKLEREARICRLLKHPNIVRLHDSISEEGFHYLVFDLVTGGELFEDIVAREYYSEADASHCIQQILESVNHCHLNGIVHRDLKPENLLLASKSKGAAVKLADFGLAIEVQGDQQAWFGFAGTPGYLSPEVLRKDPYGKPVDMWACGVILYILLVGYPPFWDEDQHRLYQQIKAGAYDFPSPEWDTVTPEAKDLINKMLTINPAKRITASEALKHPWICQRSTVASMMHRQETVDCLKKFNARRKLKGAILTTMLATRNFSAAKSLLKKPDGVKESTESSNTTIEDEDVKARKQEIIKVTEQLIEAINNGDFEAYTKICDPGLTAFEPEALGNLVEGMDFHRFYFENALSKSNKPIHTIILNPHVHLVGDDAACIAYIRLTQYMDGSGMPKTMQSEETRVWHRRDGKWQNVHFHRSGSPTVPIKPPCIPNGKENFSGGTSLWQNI
Chain of MAP kinase-interacting serine/threonine-protein kinase 1 (Homo sapiens) (Q9BUB5 whole entry, looked up): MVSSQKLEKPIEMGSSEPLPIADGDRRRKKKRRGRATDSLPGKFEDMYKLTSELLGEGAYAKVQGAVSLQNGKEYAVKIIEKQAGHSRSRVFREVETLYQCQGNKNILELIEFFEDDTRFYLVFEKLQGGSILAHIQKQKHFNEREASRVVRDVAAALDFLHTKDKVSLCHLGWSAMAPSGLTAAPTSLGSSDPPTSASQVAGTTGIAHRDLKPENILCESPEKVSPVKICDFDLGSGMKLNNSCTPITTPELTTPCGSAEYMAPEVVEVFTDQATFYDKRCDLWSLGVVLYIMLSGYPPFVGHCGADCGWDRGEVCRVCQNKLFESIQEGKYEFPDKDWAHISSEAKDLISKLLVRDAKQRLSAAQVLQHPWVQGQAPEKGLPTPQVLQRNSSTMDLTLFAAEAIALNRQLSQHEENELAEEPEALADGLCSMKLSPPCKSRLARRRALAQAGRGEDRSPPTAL
Chain of Myosin light chain kinase, smooth muscle (Homo sapiens) (Q15746 whole entry): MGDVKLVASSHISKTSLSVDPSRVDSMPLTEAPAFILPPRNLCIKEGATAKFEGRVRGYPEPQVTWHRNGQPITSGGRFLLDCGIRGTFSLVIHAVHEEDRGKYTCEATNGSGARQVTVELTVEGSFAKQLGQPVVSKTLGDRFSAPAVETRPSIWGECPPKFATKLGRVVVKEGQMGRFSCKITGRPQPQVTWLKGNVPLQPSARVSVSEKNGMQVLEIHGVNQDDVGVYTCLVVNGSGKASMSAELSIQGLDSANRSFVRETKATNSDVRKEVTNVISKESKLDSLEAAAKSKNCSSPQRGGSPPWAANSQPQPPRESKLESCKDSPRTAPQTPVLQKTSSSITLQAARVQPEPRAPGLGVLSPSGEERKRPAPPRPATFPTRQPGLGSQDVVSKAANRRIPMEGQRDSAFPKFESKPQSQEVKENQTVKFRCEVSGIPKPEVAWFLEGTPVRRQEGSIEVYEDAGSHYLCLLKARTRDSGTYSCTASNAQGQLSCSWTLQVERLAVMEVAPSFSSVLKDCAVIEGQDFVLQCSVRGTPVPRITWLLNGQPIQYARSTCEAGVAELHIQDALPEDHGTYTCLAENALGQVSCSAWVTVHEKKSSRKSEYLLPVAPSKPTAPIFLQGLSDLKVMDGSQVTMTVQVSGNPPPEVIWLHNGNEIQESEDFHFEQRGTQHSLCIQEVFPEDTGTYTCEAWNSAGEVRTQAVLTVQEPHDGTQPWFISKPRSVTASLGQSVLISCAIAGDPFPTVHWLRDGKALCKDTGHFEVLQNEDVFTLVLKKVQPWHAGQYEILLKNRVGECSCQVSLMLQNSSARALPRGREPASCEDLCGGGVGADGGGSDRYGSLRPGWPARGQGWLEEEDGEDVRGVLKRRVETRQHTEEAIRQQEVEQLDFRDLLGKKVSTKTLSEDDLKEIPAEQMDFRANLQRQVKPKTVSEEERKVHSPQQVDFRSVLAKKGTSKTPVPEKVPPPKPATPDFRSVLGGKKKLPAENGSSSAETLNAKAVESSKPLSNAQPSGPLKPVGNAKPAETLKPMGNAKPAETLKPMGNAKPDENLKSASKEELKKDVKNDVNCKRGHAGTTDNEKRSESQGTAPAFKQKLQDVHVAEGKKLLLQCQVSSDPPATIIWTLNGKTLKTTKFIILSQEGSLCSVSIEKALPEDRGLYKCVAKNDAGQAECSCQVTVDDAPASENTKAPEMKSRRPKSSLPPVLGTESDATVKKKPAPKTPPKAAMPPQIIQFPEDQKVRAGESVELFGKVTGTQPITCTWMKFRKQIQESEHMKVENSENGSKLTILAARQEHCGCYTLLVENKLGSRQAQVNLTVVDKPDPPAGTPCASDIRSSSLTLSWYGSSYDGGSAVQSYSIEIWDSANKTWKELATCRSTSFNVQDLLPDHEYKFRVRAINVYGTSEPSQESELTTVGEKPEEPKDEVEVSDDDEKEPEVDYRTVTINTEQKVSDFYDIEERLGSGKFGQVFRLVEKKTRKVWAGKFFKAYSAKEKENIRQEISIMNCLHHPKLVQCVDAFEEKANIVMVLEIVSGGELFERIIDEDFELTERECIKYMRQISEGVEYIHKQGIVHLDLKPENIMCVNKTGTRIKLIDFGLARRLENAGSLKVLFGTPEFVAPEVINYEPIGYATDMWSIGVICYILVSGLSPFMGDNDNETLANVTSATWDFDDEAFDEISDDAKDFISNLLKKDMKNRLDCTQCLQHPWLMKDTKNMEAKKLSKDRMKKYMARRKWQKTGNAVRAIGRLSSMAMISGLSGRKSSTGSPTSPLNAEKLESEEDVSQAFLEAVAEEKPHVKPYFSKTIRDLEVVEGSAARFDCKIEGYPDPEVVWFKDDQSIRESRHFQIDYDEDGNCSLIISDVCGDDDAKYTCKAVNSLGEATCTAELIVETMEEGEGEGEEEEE
Chain of Serine/threonine-protein kinase 17A (Homo sapiens) (Q9UEE5 whole entry): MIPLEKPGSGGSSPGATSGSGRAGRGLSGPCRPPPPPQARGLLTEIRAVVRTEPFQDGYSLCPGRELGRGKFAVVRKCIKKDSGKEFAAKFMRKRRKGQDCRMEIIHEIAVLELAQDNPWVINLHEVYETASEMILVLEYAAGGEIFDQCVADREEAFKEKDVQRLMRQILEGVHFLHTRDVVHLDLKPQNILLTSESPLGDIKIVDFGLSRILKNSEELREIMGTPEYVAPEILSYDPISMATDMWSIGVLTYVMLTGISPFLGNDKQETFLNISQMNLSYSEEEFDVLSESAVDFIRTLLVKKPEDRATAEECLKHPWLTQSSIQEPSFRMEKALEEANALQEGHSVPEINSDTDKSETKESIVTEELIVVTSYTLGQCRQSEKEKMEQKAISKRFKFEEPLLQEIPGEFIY

IC50 (T98G) [µM] | IC50 (Hs 683 [1]) [µM] | IC50 (cells) [µM] | IC50 [2] [µM] | Structure (SMILES) | IC50 (OE33) [µM] | IC50 [4] [µM] | other results
29 | 30 | 24 | 10 | Cc1nccc2c1[nH]c1cc(OCc3cccnc3)ccc12 | 31 | 28 | Ratio [3]: 0.29
1.9 | 4.5 | 0.9 | – | Cc1c2c(cc[n+]1Cc1ccc(F)cc1)c1ccc(OCc3cccc(F)c3)cc1n2Cc1cccc(F)c1.[Br-] | 3.4 | 2.9 | Activity [7]: 10%; Activity [8]: < 1%; Activity (Mus musculus): Non-toxic; inhibition [9]: Active; Activity [10]: 2%; inhibition (Hs 683 [11]): Active; inhibition [12]: Active; Activity [13]: 1%; inhibition (U-373MG ATCC): Active; Activity [14]: 7%; Activity [15]: 6%; solubility [5]: 53 µM; Activity [16]: 7%; Activity [17]: 6%; Ratio [18]: 0.53; Activity [19]: 10%; Activity [20]: 8%; Activity [21]: 2%

The next lines start with the molecule.

Structure (SMILES) | IC50 (T98G) [µM] | IC50 (Hs 683 [1]) [µM] | IC50 (cells) [µM] | IC50 [2] [µM] | IC50 (OE33) [µM] | IC50 [4] [µM] | other results
Cc1nccc2c3ccc(OCc4ccccc4)cc3n(Cc3ccccc3)c12 | 36 | 33 | 18 | – | 40 | 28 | solubility ([5]; read-out: solubility): < 3 µM; Ratio [6]: 0.3
COCCOc1ccc2c(c1)[nH]c1c(C)nccc12 | 61 | 53 | 64 | 16 | 66 | 53 | Ratio [22]: 0.23
Cc1nccc2c3ccc(OCC4CCCCC4)cc3n(CC3CCCCC3)c12 | 32 | 30 | 31 | > 10 | 15 | 17 | Ratio [23]: 0.17
